Source: patent US11400058B2, “Intravenous formulations of coenzyme Q10 (CoQ10) and methods of use thereof” (Berg LLC, priority 2010, dated 2022)
Marks after values point to notes of the source that are not given here.

Experiment: 4-week repeat-dose toxicology study in rats with 2-week recovery (Study 20000328)
Conditions: for Died or Sacrificed Moribund: animals of 15
[1] = 62.5 mg/kg F, end of dosing, animals of 10
[2] = 62.5 mg/kg F, end of recovery, animals of 5
[3] = 62.5 mg/kg M, end of dosing, animals of 10

COC1=C(OC)C(=O)C(C/C=C(\C)CC/C=C(\C)CC/C=C(\C)CC/C=C(\C)CC/C=C(\C)CC/C=C(\C)CC/C=C(\C)CC/C=C(\C)CC/C=C(\C)CCC=C(C)C)=C(C)C1=O [CoQ10, Coenzyme Q10]
2: Lymph Node, Mes. Histiocytic Infiltration, Mild [1] | Gross Pathology: Pale Iliac Lymph Node [2] | Liver Histiocytic Infiltration, Mild [2] | Liver Vacuolation, Mild [2] | Liver Vacuolation, Minimal [2] | Lymph Node, Man. Histiocytic Infiltration [2] | Lymph Node, Man. Histiocytic Infiltration, Minimal [2] | Spleen Histiocytic Infiltration, Minimal [2] | Liver Histiocytic Infiltration [3] | Liver Vacuolation [3] | Liver Vacuolation, Minimal [3]
7.02* 10^3/cmm: Lymphocytes (62.5 mg/kg M, end of dosing)
−57.3* %: Spleen weight (absolute), percent difference from controls (62.5 mg/kg M, end of dosing)
7.77* 10^6/cmm: Erythrocytes (62.5 mg/kg F, end of dosing)
−1.7%: Body Weight, percent difference from controls (62.5 mg/kg F, end of dosing)
6: Lymph Node, Man. Histiocytic Infiltration [3]
0: Died or Sacrificed Moribund (62.5 mg/kg F) | Bone Marrow, Sternum Hyperplasia [1] | Bone Marrow, Sternum Hyperplasia, Mild [1] | Bone Marrow, Sternum Hyperplasia, Minimal [1] | Gross Pathology: Enlarged Pancreatic Lymph Nodes [1] | Gross Pathology: Pale Adrenal [1] | Gross Pathology: Pale Ovaries [1] | Gross Pathology: Pale Pituitary [1] | Gross Pathology: Pale SQ Skin [1] | Liver Histiocytic Infiltration, Mild [1] | Liver Histiocytic Infiltration, Moderate [1] | Liver Vacuolation, Mild [1] | Lymph Node, Man. Histiocytic Infiltration, Mild [1] | Lymph Node, Man. Histiocytic Infiltration, Moderate [1] | Lymph Node, Mes. Histiocytic Infiltration, Moderate [1] | Ovary Histiocytic Infiltration [1] | Ovary Histiocytic Infiltration, Mild [1] | Ovary Histiocytic Infiltration, Minimal [1] | Ovary Histiocytic Infiltration, Moderate [1] | Skin, Dermis Histiocytic Infiltration [1] | Skin, Dermis Histiocytic Infiltration, Marked [1] | Skin, Dermis Histiocytic Infiltration, Mild [1] | Skin, Dermis Histiocytic Infiltration, Moderate [1] | Skin, SQ Histiocytic Infiltration [1] | Skin, SQ Histiocytic Infiltration, Mild [1] | Spleen Histiocytic Infiltration, Marked [1] | Spleen Histiocytic Infiltration, Moderate [1] | Adrenal Gland Vacuolation, Marked [2] | Adrenal Gland Vacuolation, Mild [2] | Adrenal Gland Vacuolation, Moderate [2] | Gross Pathology: Enlarged Spleen [2] | Gross Pathology: Pale Ovaries [2] | Liver Focal Necrosis [2] | Liver Focal Necrosis, Mild [2] | Liver Focal Necrosis, Minimal [2] | Liver Histiocytic Infiltration, Moderate [2] | Liver Multifocal Necrosis [2] | Liver Multifocal Necrosis, Mild [2] | Liver Multifocal Necrosis, Moderate [2] | Lymph Node, Man. Histiocytic Infiltration, Mild [2] | Lymph Node, Man. Histiocytic Infiltration, Moderate [2] | Lymph Node, Mes. Histiocytic Infiltration, Mild [2] | Ovary Histiocytic Infiltration, Mild [2] | Ovary Histiocytic Infiltration, Moderate [2] | Spleen Histiocytic Infiltration, Marked [2] | Spleen Histiocytic Infiltration, Moderate [2] | Died or Sacrificed Moribund (62.5 mg/kg M) | Bone Marrow, Sternum Hyperplasia [3] | Bone Marrow, Sternum Hyperplasia, Mild [3] | Bone Marrow, Sternum Hyperplasia, Minimal [3] | Gross Pathology: Enlarged Pancreatic Lymph Nodes [3] | Gross Pathology: Pale Adrenal [3] | Gross Pathology: Pale Lymph Nodes [3] | Gross Pathology: Pale Pituitary [3] | Liver Focal Necrosis [3] | Liver Focal Necrosis, Minimal [3] | Liver Histiocytic Infiltration, Moderate [3] | Liver Vacuolation, Mild [3] | Lymph Node, Mes. Histiocytic Infiltration, Moderate [3] | Skin, Dermis Histiocytic Infiltration [3] | Skin, Dermis Histiocytic Infiltration, Marked [3] | Skin, Dermis Histiocytic Infiltration, Mild [3] | Skin, Dermis Histiocytic Infiltration, Moderate [3] | Skin, SQ Histiocytic Infiltration [3] | Skin, SQ Histiocytic Infiltration, Mild [3] | Spleen Histiocytic Infiltration, Marked [3]
−5.5%: Liver weight (absolute), percent difference from controls (62.5 mg/kg M, end of dosing)
14.7* g/dL: Hemoglobin (62.5 mg/kg F, end of dosing)
0.42 IU/L: GGT (62.5 mg/kg F, end of dosing)
15.1 s: APPT (62.5 mg/kg F, end of dosing)
17.6 s: APPT (62.5 mg/kg M, end of dosing)
−7.9%: Food Consumption, percent difference from controls (62.5 mg/kg F, end of recovery)
8.14* 10^6/cmm: Erythrocytes (62.5 mg/kg M, end of dosing)
3: Adrenal Gland Vacuolation [2] | Adrenal Gland Vacuolation, Minimal [2] | Gross Pathology: Pale Liver [2] | Liver Histiocytic Infiltration, Minimal [2] | Spleen Histiocytic Infiltration [2]
74 IU/L: AST (62.5 mg/kg M, end of dosing)
−48.2* %: Spleen weight (absolute), percent difference from controls (62.5 mg/kg F, end of dosing)
44.3%: Hematocrit (62.5 mg/kg M, end of dosing)
0.00 IU/L: GGT (62.5 mg/kg M, end of dosing)
1: Gross Pathology: Pale Lymph Nodes [1] | Liver Focal Necrosis [1] | Liver Focal Necrosis, Minimal [1] | Gross Pathology: Pale Pancreatic Lymph Node [2] | Liver Vacuolation, Moderate [2] | Spleen Histiocytic Infiltration, Mild [2] | Gross Pathology: Pale SQ Skin [3] | Liver Histiocytic Infiltration, Mild [3] | Liver Histiocytic Infiltration, Minimal [3] | Lymph Node, Man. Histiocytic Infiltration, Mild [3] | Lymph Node, Man. Histiocytic Infiltration, Moderate [3] | Spleen Histiocytic Infiltration [3]
−6.1%: Liver weight (absolute), percent difference from controls (62.5 mg/kg F, end of dosing)
+0.5%: Spleen weight (absolute), percent difference from controls (62.5 mg/kg F, end of recovery)
42.4* %: Hematocrit (62.5 mg/kg F, end of dosing)
6.79 10^3/cmm: Lymphocytes (62.5 mg/kg F, end of dosing)
−4.0%: Food Consumption, percent difference from controls (62.5 mg/kg F, end of dosing)
4: Lymph Node, Man. Histiocytic Infiltration [1] | Lymph Node, Man. Histiocytic Infiltration, Minimal [1] | Spleen Histiocytic Infiltration [1] | Spleen Histiocytic Infiltration, Mild [1] | Lymph Node, Mes. Histiocytic Infiltration [2] | Lymph Node, Mes. Histiocytic Infiltration, Minimal [2] | Ovary Histiocytic Infiltration [2] | Ovary Histiocytic Infiltration, Minimal [2] | Lymph Node, Man. Histiocytic Infiltration, Minimal [3] | Lymph Node, Mes. Histiocytic Infiltration, Mild [3]
1.06 10^3/cmm: Neutrophils (62.5 mg/kg F, end of dosing) | Neutrophils (62.5 mg/kg M, end of dosing)
0.09 10^3/cmm: Eosinophils (62.5 mg/kg F, end of dosing)
83 IU/L: AST (62.5 mg/kg F, end of recovery)
15.1* g/dL: Hemoglobin (62.5 mg/kg M, end of dosing)
22 IU/L: ALT (62.5 mg/kg M, end of dosing)
+4.6%: Liver weight (absolute), percent difference from controls (62.5 mg/kg F, end of recovery)
−0.5%: Body Weight, percent difference from controls (62.5 mg/kg M, end of dosing)
5: Liver Histiocytic Infiltration [2] | Liver Vacuolation [2] | Lymph Node, Mes. Histiocytic Infiltration, Minimal [3]
8.33 10^3/cmm: Leukocytes (62.5 mg/kg F, end of dosing)
+2.5%: Food Consumption, percent difference from controls (62.5 mg/kg M, end of dosing)
19 IU/L: ALT (62.5 mg/kg F, end of dosing) | ALT (62.5 mg/kg F, end of recovery)
67* IU/L: AST (62.5 mg/kg F, end of dosing)
−0.9%: Body Weight, percent difference from controls (62.5 mg/kg F, end of recovery)
9: Lymph Node, Mes. Histiocytic Infiltration [1] | Gross Pathology: Pale Liver [3] | Lymph Node, Mes. Histiocytic Infiltration [3]
14.4 s: APPT (62.5 mg/kg F, end of recovery)
0.12 IU/L: GGT (62.5 mg/kg F, end of recovery)
7: Gross Pathology: Pale Liver [1] | Liver Histiocytic Infiltration [1] | Liver Histiocytic Infiltration, Minimal [1] | Liver Vacuolation [1] | Liver Vacuolation, Minimal [1] | Lymph Node, Mes. Histiocytic Infiltration, Minimal [1]
8.56* 10^3/cmm: Leukocytes (62.5 mg/kg M, end of dosing)
0.09* 10^3/cmm: Eosinophils (62.5 mg/kg M, end of dosing)
